Data as given in ChEMBL document CHEMBL1201862, “PubChem BioAssay data set” (2004).
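Protocol summary: plate cells (96-well), add compound at 5 concentrations, incubate 48 h, interpolate endpoints linearly. At the GI50, growth is halved.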 Calls of active or inactive are those of the source. No stated cut-off is given here; in the data, active = GI50 up to about 1.1 µM and inactive = higher.

How the values were obtained:
Experiment in all cases: NCI-60 cell line screen, 48 h
TK-10 = tested on: TK-10
HT-29 = tested on: HT-29
NCI-H522 = tested on: NCI-H522
786-0 = tested on: 786-0
SK-MEL-28 = tested on: SK-MEL-28
COLO 205 = tested on: COLO 205
OVCAR-3 = tested on: OVCAR-3
CAKI-1 = tested on: CAKI-1
RPMI-8226 = tested on: RPMI-8226
Malme-3M = tested on: Malme-3M
NCI-H23 = tested on: NCI-H23
SNB-19 = tested on: SNB-19
DU-145 = tested on: DU-145
HCT-116 = tested on: HCT-116
HOP-92 = tested on: HOP-92
T47D = tested on: T47D
MDA-MB-435 = tested on: MDA-MB-435
Hs-578T = tested on: Hs-578T

Measured: GI50

Cc1ccccc1-n1c(N)c(-c2nc3ccccc3[nH]2)sc1=S
inactive: TK-10 39.3 µM | HT-29 19.6 µM | NCI-H522 21.3 µM | 786-0 30.1 µM | SK-MEL-28 20 µM | COLO 205 22.6 µM | OVCAR-3 20 µM | CAKI-1 37.8 µM | RPMI-8226 23.1 µM | Malme-3M 21.5 µM | NCI-H23 23.3 µM | SNB-19 24.9 µM

C=CCOC(=O)N1[C@H]2C#C/C=C\C#C[C@]3(O)C(=O)C[C@H](C)[C@]24O[C@]43C2=CC(=O)C=CC21OC (some centres not stated)
inactive: TK-10 18.4 µM | HT-29 27.7 µM | DU-145 38.7 µM | NCI-H522 18.6 µM | HCT-116 19.8 µM | 786-0 11.6 µM | HOP-92 38 µM | SK-MEL-28 95.9 µM | COLO 205 13.6 µM | T47D 64.9 µM | CAKI-1 33.1 µM | RPMI-8226 21.2 µM | Malme-3M 43.7 µM | NCI-H23 27.2 µM | MDA-MB-435 16.6 µM | Hs-578T 49 µM | SNB-19 38.3 µM

O=c1[nH]c(=O)n(CCOc2ccccc2)cc1Nc1ccccc1
inactive: HT-29 > 100 µM | DU-145 > 100 µM | NCI-H522 6.11 µM | HCT-116 > 100 µM | 786-0 61.2 µM | HOP-92 6.32 µM | SK-MEL-28 > 100 µM | COLO 205 > 100 µM | OVCAR-3 > 100 µM | CAKI-1 > 100 µM | RPMI-8226 > 100 µM | Malme-3M > 100 µM | NCI-H23 > 100 µM | MDA-MB-435 > 100 µM | Hs-578T 52.5 µM | SNB-19 > 100 µM

Cc1c(C)c(C)n(C2OC(CO)C(O)C(O)C2O)c(=S)c1C#N (configuration not stated)
inactive: TK-10 > 100 µM | HT-29 > 100 µM | DU-145 > 100 µM | NCI-H522 > 100 µM | HCT-116 > 100 µM | 786-0 > 100 µM | HOP-92 > 100 µM | SK-MEL-28 > 100 µM | COLO 205 > 100 µM | OVCAR-3 > 100 µM | T47D > 100 µM | Malme-3M > 100 µM | NCI-H23 > 100 µM | MDA-MB-435 > 100 µM | SNB-19 > 100 µM

CCC1C(C)c2c([nH]c3ccccc23)C2C(=O)N(c3ccccc3)C(=O)C21 (configuration not stated)
inactive: TK-10 31.3 µM | HT-29 12.5 µM | 786-0 16.9 µM | SK-MEL-28 17.7 µM | COLO 205 16.1 µM | OVCAR-3 13.3 µM | RPMI-8226 11.9 µM | Malme-3M 16.6 µM | NCI-H23 18.6 µM

Nc1nc(Cl)nc2c1ncn2C1CCC(COP(=O)(O)OP(=O)(O)OP(=O)(O)O)O1 (configuration not stated)
inactive: TK-10 25.1 µM | HT-29 32 µM | DU-145 23.3 µM | NCI-H522 25.8 µM | HCT-116 35.2 µM | 786-0 37.3 µM | HOP-92 23.7 µM | SK-MEL-28 20.4 µM | COLO 205 20.5 µM | OVCAR-3 50.2 µM | T47D 23.8 µM | CAKI-1 6.89 µM | Malme-3M > 100 µM | NCI-H23 19.9 µM | MDA-MB-435 23 µM | Hs-578T 29.7 µM | SNB-19 > 100 µM

CC1CC2OC(=N)C1(C#N)C2(C#N)C#N (configuration not stated)
inactive: TK-10 26.8 µM | HT-29 19.4 µM | DU-145 56.6 µM | NCI-H522 13.5 µM | HCT-116 16.3 µM | 786-0 17.9 µM | HOP-92 17.9 µM | SK-MEL-28 35.3 µM | COLO 205 10.9 µM | T47D 25.9 µM | CAKI-1 7.57 µM | RPMI-8226 16.4 µM | Malme-3M 15.8 µM | NCI-H23 23.6 µM | MDA-MB-435 34 µM | Hs-578T 33.8 µM | SNB-19 34.8 µM

[O-][n+]1c2ccccc2[n+]([O-])c2cc(Br)ccc21
inactive: TK-10 26.1 µM | HT-29 18.6 µM | DU-145 24.7 µM | NCI-H522 12.9 µM | HCT-116 70.1 µM | 786-0 10.1 µM | SK-MEL-28 54.1 µM | COLO 205 20.7 µM | OVCAR-3 2.21 µM | T47D 10.2 µM | CAKI-1 5.41 µM | RPMI-8226 8.05 µM | Malme-3M 23.2 µM | NCI-H23 21.5 µM | MDA-MB-435 18.2 µM | Hs-578T 35.2 µM | SNB-19 33.2 µM

O=[N+]([O-])C(=C1NCCN1)C(Cl)=C(Cl)Cl
inactive: TK-10 > 100 µM | HT-29 > 100 µM | DU-145 > 100 µM | NCI-H522 > 100 µM | HCT-116 > 100 µM | 786-0 > 100 µM | SK-MEL-28 > 100 µM | COLO 205 > 100 µM | OVCAR-3 > 100 µM | T47D > 100 µM | CAKI-1 > 100 µM | RPMI-8226 > 100 µM | Malme-3M > 100 µM | NCI-H23 > 100 µM | MDA-MB-435 > 100 µM | Hs-578T > 100 µM | SNB-19 > 100 µM
